Assay results reported in ChEMBL document CHEMBL1156556, “Knowledge-based design of 7-azaindoles as selective B-Raf inhibitors” (Bioorg Med Chem Lett, 2008).
Each block holds one compound with its values, some of them ahead of it. Activity calls are given as the source filed them. No cut-off for these calls is given here.

Legend:
[1] = biological target: Serine/threonine-protein kinase B-raf (Homo sapiens, UniProt P15056); assay: Inhibition of B-Raf by fluorescence anisotropy binding assay
Cytochrome P450 2D6 = Cytochrome P450 2D6 (Homo sapiens, UniProt P10635); assay: Inhibition of CYP2D6; format: ADME
Cytochrome P450 2C9 = Cytochrome P450 2C9 (Homo sapiens, UniProt P11712); assay: Inhibition of CYP2C9; format: ADME
[2] = biological target: Insulin-like growth factor 1 receptor (Homo sapiens) (UniProt P08069); assay: Inhibition of IGF1R at 30 uM
[3] = Selectivity for B-Raf over c-Met
[4] = biological target: RAC-alpha serine/threonine-protein kinase (Homo sapiens) (UniProt P31749); assay: Inhibition of AKT1 at 30 uM
[5] = biological target: Tyrosine-protein kinase BTK (Homo sapiens) (UniProt Q06187); assay: Inhibition of BTK at 30 uM
[6] = biological target: Cyclin-dependent kinase 2 (Homo sapiens) (UniProt P24941); assay: Inhibition of CDK2 at 30 uM
[7] = biological target: T1, Serine/threonine-protein kinase Sgk1 (Homo sapiens) (UniProt O00141); assay: Inhibition of SGK1 at 30 uM
T1 sequence (whole entry): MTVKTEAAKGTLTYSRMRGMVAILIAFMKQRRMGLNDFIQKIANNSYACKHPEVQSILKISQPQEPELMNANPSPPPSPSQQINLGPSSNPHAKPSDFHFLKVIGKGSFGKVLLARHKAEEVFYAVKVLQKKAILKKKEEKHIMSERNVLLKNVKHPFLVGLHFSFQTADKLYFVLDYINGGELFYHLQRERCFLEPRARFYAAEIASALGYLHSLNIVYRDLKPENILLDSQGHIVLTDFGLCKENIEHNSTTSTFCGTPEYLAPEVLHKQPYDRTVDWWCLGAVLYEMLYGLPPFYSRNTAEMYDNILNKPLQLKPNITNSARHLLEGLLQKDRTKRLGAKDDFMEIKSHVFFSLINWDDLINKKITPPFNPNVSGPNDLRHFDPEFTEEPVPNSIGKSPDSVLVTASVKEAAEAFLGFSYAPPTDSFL

[8] = biological target: T2, Tyrosine-protein kinase ZAP-70 (Homo sapiens) (UniProt P43403); assay: Inhibition of ZAP70 at 30 uM
T2 sequence (whole entry): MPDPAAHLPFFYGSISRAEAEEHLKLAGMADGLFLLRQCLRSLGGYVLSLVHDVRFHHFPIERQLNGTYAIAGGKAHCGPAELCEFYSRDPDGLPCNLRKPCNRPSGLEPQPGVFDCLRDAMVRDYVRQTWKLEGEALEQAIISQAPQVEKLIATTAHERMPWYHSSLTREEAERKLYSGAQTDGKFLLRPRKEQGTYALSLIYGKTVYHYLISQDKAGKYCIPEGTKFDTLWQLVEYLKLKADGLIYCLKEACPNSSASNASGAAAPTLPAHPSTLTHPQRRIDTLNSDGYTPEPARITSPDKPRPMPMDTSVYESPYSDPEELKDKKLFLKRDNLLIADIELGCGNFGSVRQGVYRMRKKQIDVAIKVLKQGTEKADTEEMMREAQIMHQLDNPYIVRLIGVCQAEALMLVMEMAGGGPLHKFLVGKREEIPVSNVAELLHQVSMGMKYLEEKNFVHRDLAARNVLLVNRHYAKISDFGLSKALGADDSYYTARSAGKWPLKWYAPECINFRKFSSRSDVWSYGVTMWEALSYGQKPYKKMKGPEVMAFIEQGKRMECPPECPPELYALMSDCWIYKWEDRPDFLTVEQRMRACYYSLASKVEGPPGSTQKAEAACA

[9] = biological target: Glycogen synthase kinase-3 beta (Homo sapiens) (UniProt P49841); assay: Inhibition of GSK3b at 30 uM
[10] = biological target: Mitogen-activated protein kinase 1 (Homo sapiens) (UniProt P28482); assay: Inhibition of ERK2 at 30 uM
[11] = biological target: Tyrosine-protein kinase SYK (Homo sapiens) (UniProt P43405); assay: Inhibition of SYK at 30 uM
[12] = Selectivity for B-Raf over VEGFR2
[13] = biological target: T3, Inhibitor of nuclear factor kappa-B kinase subunit beta (Homo sapiens) (UniProt O14920); assay: Inhibition of IKK2 at 30 uM
T3 sequence (whole entry): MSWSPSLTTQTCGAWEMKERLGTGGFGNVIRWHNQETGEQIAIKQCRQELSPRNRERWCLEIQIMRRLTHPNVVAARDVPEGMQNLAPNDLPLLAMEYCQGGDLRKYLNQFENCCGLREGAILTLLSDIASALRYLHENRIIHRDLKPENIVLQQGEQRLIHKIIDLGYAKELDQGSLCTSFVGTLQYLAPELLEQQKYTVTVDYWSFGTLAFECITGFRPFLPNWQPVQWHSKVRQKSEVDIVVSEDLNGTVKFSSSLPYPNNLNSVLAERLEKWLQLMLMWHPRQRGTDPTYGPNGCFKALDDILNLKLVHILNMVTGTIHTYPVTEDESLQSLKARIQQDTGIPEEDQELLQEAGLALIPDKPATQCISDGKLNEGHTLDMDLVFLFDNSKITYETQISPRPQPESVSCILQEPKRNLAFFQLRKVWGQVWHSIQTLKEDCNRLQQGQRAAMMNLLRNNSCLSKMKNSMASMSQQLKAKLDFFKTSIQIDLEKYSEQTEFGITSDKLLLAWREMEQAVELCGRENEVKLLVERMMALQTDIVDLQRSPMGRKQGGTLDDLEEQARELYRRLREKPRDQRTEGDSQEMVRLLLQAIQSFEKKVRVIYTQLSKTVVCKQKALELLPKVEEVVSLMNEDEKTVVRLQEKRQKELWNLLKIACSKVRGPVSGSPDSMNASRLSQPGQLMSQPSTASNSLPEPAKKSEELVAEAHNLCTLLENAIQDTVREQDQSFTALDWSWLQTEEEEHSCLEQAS

[14] = biological target: Receptor tyrosine-protein kinase erbB-4 (Homo sapiens) (UniProt Q15303); assay: Inhibition of ERBB4 at 30 uM
Sequence of Receptor tyrosine-protein kinase erbB-4 (Homo sapiens) (Q15303 whole entry): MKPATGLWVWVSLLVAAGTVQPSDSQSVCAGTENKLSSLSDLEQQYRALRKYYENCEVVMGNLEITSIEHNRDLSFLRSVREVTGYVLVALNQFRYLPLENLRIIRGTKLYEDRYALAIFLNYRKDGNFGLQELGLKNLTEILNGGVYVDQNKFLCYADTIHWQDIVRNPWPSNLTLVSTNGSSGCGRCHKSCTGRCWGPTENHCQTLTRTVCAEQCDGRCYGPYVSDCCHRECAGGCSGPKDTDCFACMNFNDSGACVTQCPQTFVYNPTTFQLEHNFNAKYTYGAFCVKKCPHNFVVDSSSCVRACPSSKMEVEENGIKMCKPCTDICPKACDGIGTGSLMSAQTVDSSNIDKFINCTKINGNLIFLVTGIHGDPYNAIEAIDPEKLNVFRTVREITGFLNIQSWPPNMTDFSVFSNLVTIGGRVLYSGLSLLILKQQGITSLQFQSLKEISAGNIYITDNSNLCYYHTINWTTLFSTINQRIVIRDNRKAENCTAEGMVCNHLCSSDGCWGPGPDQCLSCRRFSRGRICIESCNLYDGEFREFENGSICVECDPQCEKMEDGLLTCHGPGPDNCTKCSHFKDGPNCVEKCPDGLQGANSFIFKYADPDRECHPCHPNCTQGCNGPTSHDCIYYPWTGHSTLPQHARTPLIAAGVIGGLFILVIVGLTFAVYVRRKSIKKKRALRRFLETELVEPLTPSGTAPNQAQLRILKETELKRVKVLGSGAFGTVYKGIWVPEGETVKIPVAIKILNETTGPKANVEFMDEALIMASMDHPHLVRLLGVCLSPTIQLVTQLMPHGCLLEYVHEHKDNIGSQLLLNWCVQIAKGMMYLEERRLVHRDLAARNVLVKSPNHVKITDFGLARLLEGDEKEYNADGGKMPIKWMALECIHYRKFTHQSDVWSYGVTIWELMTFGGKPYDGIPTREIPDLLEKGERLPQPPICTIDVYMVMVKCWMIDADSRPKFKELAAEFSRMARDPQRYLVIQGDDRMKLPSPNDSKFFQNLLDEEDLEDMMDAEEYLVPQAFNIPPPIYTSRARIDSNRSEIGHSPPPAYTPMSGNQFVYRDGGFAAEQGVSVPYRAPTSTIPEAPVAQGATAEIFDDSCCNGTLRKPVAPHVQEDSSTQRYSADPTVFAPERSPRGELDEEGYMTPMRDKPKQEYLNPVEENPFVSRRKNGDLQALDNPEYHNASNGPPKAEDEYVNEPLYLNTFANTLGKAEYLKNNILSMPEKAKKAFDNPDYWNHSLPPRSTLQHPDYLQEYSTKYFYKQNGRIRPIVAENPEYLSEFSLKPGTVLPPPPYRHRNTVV

Sequence of Serine/threonine-protein kinase B-raf (P15056 whole entry): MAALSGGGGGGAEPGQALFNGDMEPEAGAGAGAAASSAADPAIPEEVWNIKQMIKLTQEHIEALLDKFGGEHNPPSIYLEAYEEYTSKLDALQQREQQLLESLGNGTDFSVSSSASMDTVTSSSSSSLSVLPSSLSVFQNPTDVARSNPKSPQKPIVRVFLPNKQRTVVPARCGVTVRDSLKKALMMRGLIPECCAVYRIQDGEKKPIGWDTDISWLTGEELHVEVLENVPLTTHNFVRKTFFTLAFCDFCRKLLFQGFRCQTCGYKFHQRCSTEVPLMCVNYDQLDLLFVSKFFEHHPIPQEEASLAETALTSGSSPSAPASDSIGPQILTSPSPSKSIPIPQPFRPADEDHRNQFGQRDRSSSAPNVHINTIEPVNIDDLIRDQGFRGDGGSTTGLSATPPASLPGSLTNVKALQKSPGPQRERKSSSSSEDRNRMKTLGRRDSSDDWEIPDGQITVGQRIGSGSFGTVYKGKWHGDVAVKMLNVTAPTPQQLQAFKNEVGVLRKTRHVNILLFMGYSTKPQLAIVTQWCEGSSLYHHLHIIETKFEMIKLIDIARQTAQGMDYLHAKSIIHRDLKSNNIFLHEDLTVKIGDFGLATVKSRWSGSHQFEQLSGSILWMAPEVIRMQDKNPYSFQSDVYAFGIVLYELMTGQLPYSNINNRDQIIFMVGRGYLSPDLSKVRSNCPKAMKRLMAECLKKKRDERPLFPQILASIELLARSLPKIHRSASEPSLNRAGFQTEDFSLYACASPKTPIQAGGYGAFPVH
Sequence of Cytochrome P450 2D6 (P10635 whole entry): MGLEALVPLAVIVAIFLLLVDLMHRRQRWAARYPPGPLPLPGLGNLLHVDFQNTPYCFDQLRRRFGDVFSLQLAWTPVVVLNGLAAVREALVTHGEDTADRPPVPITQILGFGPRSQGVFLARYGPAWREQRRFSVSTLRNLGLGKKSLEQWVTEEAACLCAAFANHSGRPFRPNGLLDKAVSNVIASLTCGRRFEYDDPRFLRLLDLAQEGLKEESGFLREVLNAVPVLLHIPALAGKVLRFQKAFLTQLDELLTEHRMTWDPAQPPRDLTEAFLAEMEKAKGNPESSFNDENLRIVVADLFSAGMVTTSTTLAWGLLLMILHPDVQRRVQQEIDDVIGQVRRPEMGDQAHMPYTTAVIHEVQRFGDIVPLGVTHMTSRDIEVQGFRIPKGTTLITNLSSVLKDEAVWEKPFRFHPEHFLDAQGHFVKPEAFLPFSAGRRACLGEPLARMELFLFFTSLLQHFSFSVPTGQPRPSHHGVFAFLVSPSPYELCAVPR
Sequence of Cytochrome P450 2C9 (P11712 whole entry): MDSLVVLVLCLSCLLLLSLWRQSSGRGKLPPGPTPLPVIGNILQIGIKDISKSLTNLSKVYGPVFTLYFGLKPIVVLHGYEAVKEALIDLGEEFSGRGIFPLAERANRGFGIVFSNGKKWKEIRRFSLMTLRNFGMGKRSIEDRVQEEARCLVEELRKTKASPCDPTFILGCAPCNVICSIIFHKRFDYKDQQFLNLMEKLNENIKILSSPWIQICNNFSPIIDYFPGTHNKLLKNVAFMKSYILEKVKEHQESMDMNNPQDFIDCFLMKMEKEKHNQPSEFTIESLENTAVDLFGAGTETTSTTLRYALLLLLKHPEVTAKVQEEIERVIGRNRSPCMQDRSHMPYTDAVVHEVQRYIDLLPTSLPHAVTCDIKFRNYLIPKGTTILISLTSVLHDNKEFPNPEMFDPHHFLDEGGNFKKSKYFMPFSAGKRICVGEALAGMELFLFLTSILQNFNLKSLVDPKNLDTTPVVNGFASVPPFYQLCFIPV
Sequence of Glycogen synthase kinase-3 beta (Homo sapiens) (P49841 whole entry, looked up): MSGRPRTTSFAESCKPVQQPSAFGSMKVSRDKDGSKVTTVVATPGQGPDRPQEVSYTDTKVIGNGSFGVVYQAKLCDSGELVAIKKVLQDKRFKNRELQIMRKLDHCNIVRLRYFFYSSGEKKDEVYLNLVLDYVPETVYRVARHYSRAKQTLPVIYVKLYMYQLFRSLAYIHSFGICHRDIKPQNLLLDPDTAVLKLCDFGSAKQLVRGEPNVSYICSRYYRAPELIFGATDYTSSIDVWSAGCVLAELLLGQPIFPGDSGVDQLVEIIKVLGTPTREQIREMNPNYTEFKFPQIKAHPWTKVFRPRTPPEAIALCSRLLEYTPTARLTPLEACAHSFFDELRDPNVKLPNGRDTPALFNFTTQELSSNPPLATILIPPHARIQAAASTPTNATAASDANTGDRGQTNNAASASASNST
Sequence of Tyrosine-protein kinase BTK (Homo sapiens) (Q06187 whole entry): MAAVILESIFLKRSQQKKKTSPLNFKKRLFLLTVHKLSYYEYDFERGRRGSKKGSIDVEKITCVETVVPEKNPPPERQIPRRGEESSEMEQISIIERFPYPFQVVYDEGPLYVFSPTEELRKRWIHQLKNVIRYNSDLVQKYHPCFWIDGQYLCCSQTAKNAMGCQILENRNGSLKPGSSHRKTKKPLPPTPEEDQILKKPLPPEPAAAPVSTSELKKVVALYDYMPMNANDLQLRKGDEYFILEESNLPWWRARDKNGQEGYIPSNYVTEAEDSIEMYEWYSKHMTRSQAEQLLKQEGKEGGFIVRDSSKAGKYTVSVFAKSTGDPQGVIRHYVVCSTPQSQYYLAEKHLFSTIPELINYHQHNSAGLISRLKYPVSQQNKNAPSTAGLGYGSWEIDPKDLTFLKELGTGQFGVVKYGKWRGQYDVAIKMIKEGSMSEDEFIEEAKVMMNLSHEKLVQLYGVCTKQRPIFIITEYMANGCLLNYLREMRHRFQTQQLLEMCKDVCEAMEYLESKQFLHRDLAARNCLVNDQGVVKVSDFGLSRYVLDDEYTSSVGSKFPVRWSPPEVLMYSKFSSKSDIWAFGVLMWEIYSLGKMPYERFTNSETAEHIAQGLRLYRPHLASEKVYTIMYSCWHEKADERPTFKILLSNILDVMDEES
Sequence of RAC-alpha serine/threonine-protein kinase (Homo sapiens) (P31749 whole entry): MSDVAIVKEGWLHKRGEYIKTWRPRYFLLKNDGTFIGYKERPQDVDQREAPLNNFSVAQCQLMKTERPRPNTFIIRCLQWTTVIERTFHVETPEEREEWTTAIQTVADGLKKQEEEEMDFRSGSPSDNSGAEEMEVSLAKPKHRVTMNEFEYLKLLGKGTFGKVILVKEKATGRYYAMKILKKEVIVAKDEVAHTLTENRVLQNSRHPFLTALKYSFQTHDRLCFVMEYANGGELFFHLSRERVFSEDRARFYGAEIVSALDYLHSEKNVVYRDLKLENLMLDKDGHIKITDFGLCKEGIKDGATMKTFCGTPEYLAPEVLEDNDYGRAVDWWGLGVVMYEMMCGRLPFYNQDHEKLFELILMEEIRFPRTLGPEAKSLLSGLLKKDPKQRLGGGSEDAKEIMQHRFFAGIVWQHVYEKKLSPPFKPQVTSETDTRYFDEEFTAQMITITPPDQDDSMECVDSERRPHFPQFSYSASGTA
Sequence of Mitogen-activated protein kinase 1 (Homo sapiens) (P28482 whole entry): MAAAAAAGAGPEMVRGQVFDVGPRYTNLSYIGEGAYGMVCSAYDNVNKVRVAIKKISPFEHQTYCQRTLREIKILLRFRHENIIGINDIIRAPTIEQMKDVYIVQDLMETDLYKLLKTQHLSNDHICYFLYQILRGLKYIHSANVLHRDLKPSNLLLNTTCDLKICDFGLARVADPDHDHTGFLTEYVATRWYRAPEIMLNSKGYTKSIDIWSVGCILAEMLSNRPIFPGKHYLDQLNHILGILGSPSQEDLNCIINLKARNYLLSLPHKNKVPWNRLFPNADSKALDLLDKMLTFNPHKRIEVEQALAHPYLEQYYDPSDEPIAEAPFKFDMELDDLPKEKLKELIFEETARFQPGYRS

SMILES: CCn1cc(-c2ccnc3[nH]ccc23)c(-c2cccc(NC(=O)NC3CCCCC3)c2)n1
IC50 [1]: 41.7 nM

SMILES: CCn1cc(-c2ccnc3[nH]ccc23)c(-c2cccc(NC(=O)Nc3cccc(OC)c3)c2)n1
IC50 (Cytochrome P450 2D6): 200 nM | IC50 (Cytochrome P450 2C9): 316 nM | IC50 [1]: 2.1 nM

IC50 [1]: 45.7 nM
SMILES: CCn1cc(-c2ccnc3[nH]c(C(=O)O)cc23)c(-c2cccc(NC(=O)Nc3ccccc3)c2)n1

IC50 [1]: 25.7 nM
SMILES: CCn1cc(-c2ccnc3[nH]ccc23)c(-c2cccc(NC(=O)Nc3c(F)cccc3F)c2)n1

IC50 [1]: 33.9 nM
SMILES: CCOC(=O)c1cc2c(-c3cn(CC)nc3-c3cccc(NC(=O)Nc4ccccc4)c3)ccnc2[nH]1

IC50 [1]: 3.9 nM
SMILES: CCn1cc(-c2ccnc3[nH]ccc23)c(-c2cccc(NC(=O)Nc3cc(C(F)(F)F)ccc3F)c2)n1

Activity [2]: inactive | IC50 (Cytochrome P450 2D6): 5010 nM | IC50 (Cytochrome P450 2C9): 1260 nM | fold change (FC) [3]: 100 | Activity [4]: inactive | Activity [5]: inactive | Activity [6]: inactive | Activity [7]: inactive | Activity [8]: inactive | Activity [9]: inactive | Activity [10]: inactive | Activity [11]: inactive | fold change (FC) [12]: 100 | Activity [13]: inactive | Activity [14]: inactive
SMILES: CCn1cc(-c2ccnc3[nH]ccc23)c(-c2cccc(NC(=O)Nc3ccc(C(F)(F)F)cc3)c2)n1

IC50 [1]: 5.4 nM
SMILES: CCn1cc(-c2ccnc3[nH]ccc23)c(-c2cccc(NC(=O)Nc3ccc(Cl)c(C(F)(F)F)c3)c2)n1

IC50 [1]: 79.4 nM
SMILES: CCn1cc(-c2ccnc3[nH]cc(Br)c23)c(-c2cccc(NC(=O)Nc3ccccc3)c2)n1
